Data on twelve molecules can be found in ChEMBL document CHEMBL1135497, “Identification of potent and novel alpha4beta1 antagonists using in silico screening” (J Med Chem, 2002).

Structures are written as SMILES.

The target of the test is Integrin alpha-4/beta-1 (Homo sapiens, UniProt P05556+P13612). Put plainly: Inhibition of Very late antigen 4 (VLA-4) and VCAM-Ig fusion protein interaction. The class given is protein-complex assay.
Chain of Integrin alpha-4/beta-1 (P05556 whole entry, the tested form may be a part): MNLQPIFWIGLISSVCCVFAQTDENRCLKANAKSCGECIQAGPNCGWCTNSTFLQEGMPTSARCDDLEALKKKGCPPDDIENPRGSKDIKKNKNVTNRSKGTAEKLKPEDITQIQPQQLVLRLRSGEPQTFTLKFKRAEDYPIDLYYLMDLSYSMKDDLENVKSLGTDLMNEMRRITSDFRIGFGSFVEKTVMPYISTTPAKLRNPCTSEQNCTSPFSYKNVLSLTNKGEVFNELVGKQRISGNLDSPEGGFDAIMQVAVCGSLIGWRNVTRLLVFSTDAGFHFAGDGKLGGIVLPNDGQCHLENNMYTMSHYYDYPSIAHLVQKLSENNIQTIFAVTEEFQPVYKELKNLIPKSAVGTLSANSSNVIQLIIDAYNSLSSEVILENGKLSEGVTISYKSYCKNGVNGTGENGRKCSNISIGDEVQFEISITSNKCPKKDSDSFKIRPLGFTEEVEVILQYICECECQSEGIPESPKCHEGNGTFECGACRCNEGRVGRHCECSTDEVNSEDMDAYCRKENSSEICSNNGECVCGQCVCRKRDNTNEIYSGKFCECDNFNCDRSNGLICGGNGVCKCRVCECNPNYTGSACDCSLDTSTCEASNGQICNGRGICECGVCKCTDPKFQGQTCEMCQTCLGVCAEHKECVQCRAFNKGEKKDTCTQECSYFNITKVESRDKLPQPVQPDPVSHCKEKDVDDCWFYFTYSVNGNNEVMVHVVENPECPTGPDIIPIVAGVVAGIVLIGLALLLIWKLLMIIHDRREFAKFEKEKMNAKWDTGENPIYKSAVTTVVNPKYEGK
Chain of Integrin alpha-4/beta-1 (P13612 whole entry, the tested form may be a part): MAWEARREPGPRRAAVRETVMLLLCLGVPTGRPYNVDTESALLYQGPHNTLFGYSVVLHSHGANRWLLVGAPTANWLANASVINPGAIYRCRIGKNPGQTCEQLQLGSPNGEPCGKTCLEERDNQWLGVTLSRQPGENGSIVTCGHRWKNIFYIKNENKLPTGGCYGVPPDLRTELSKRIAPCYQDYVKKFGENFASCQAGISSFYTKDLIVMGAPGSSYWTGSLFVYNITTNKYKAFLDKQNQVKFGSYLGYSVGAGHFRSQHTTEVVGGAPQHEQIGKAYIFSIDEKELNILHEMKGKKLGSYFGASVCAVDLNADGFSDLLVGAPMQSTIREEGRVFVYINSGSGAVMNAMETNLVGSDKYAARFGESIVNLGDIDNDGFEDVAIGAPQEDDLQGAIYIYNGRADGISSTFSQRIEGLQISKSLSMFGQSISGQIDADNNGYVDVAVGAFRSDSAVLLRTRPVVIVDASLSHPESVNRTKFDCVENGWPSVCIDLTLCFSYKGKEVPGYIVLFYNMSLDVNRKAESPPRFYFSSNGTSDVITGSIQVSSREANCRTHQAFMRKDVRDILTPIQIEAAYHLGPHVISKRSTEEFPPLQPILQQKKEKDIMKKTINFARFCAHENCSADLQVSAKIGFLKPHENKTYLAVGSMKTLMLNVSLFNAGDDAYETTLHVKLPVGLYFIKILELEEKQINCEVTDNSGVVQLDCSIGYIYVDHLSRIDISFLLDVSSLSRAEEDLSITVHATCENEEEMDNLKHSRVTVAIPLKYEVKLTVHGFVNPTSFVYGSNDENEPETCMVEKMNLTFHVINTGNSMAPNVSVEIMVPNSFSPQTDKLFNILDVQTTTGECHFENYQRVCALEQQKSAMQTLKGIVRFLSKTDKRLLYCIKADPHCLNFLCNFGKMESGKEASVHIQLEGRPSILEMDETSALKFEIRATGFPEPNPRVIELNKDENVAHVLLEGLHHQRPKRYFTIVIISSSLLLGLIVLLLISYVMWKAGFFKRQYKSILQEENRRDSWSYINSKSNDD
What is called IC50 is the concentration that inhibits the measured activity by half. Higher therefore signals lower potency. On to `Cc1ccccc1NC(=O)Nc1ccc(CC(=O)Nc2nc(CC(=O)O)cs2)cc1`, for which the IC50 was 15000 nM.

With `Cc1ccccc1NC(=O)Nc1ccc(CC(=O)Nc2cn(CCC(=O)O)c(C)n2)cc1`, the IC50 is 3000 nM. Consider `Cc1ccccc1NC(=O)Nc1ccc(CC(=O)Nc2ccc3cnn(C(=O)NCC(=O)O)c3c2)cc1`, for which inhibition was half-maximal at 800 nM (IC50).

For the molecule `Cc1ccccc1NC(=O)Nc1ccc(CC(=O)Nc2cccc(CCC(=O)O)c2)cc1`, it took 11400 nM to reach half-maximal inhibition (IC50).

As for `Cc1ccccc1NC(=O)Nc1ccc(CC(=O)Nc2ccc(C(C)CC(=O)O)cc2)cc1` (configuration not stated), the IC50 amounted to 1.3 nM. Consider `Cc1ccccc1NC(=O)Nc1ccc(CC(=O)Nc2cccc(C(O)CC(=O)O)c2)cc1` (configuration not stated), for which half-maximal inhibition (IC50) was put at 2000 nM. The molecule `Cc1ccccc1NC(=O)Nc1ccc(CC(=O)Nc2cccc(C(C)CC(=O)O)c2)cc1` (configuration not stated) displayed an IC50 of 2500 nM. In turn, `Cc1ccccc1NC(=O)Nc1ccc(CC(=O)Nc2cccc(NC(=O)NCC(=O)O)c2)cc1` gave an IC50 of 67 nM. Molecule `Cc1ccccc1NC(=O)Nc1ccc(CC(=O)Nc2cccc(C(=O)NCC(=O)O)c2)cc1` displayed an IC50 of 1200 nM. Consider `CC(=O)NC(Cc1ccc(NC(=O)Cc2ccc(NC(=O)Nc3ccccc3C)cc2)cc1)C(=O)O` (configuration not stated), for which the IC50 was determined as 58 nM. Molecule `Cc1ccccc1NC(=O)Nc1ccc(CC(=O)Nc2nnc(SCC(=O)O)s2)cc1` showed an IC50 of 2300 nM. Take `C=C(S/C(=N\C(=O)Cc1ccc(NC(=O)Nc2ccccc2C)cc1)NCCC(=O)O)c1ccccc1`: the IC50 stood at 20000 nM.
